Measurements published in paper PMC12185845, “How allosteric mutations control ligand binding in Lipocalin protein: odorant binding protein as a test case” (Cellular and Molecular Life Sciences: CMLS, 2025).
Residue numbers refer to the chain shown, from its start.

Legend:
Experiment in all cases: isothermal titration calorimetry, single-site fit
Format in all cases: binding
[1] = target: T1, rOBP1 (rOBP1-wt) (Rattus norvegicus, UniProt P08937, S50C/Y98C, form not given); conditions: 50 mM sodium phosphate, pH 7.5, 25 °C
T1 construct: gene Obp1f; S7
T1 sequence (P08937 16-172 S50C/Y98C): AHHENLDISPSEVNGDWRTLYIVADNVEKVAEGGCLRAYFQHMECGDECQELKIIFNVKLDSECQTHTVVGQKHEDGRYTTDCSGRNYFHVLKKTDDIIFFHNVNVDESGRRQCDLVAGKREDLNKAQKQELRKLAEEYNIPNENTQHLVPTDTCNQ

[2] = target: T2, rOBP1 (rOBP1-wt) (Rattus norvegicus, UniProt P08937); conditions: 50 mM sodium phosphate, pH 7.5, 25 °C
T2 construct: gene Obp1f; S7
T2 sequence (P08937 16-172): T1 sequence (P08937 16-172 S50C/Y98C) with C35S, C83Y

[3] = target: T2, rOBP1 (rOBP1-wt); conditions: 50 mM sodium phosphate, pH 7.5, 25 °C; ligand up to the millimolar range; distal allosteric position

Kd [2] [nM]	SMILES	binding (ITC) [1]	binding (ITC) [3]
60	C=CCc1ccc(O)c(OC)c1 [eugenol]	total loss of binding for the three odorants as no heat change was observed	indicating a complete loss of affinity for all ligands
441	Cc1ccc(C(C)C)c(O)c1 [thymol]	total loss of binding for the three odorants as no heat change was observed	indicating a complete loss of affinity for all ligands
